Data taken from patent publication US12522631B2, “Compounds for use in the treatment of liver disease” (The Provost, Fellows, Foundation Scholars, And The Other …, priority 2019, dated 2026).
Structures can show the parent of a compound that is named as a salt. Where two headings read alike, the source gives them in different places.

Key:
[1] = oral, rats; cited from earlier work
HUH-7 cells [2] = experiment: alamarBlue cell viability assay, HUH-7 cells treated with DCA; type: cell-based; conditions: 24 h before DCA 200 μM, then co-treated 24 h (FIG. 14a); for cytoprotective effect (alamarBlue): 100, 50, 10 μM
From the text: (§1) The difference between the observed cell viability in each of the assays is a consequence of the different properties measured in each assay. The alamarBlue™ assay uses resazurin-based reagents that function as cell health indicators by using the reducing power of living cells to quantitatively measure viability. Upon entering living cells, resazurin is reduced to resorufin, a compound that is red in color and highly fluorescent. The MTT assay is a colorimetric assay for assessing cell metabolic activity. NAD(P)H-dependent cellular oxidoreductase enzymes may, under defined conditions, reflect the number of viable cells present.

HUH-7 cells [3] = experiment: MTT cell viability assay, HUH-7 cells treated with DCA; type: cell-based; conditions: 100, 50, 10 μM; 24 h before DCA 200 μM, then co-treated 24 h (FIG. 14b)
From the text: as §1, with “The” for “The difference between the observed cell viability in each of the assays is a consequence of the different properties measured in each assay. The”

HUH-7 cells [4] = experiment: alamarBlue cell viability assay, HUH-7 cells treated with tunicamycin
From the text: Tunicamycin is known to induce Endoplasmic Reticulum (ER) stress, resulting ultimately in induction of apopotosis.

HepG2 cells = experiment: alamarBlue cell viability assay, HepG2 cells treated with tunicamycin; type: cell-based
[5] = test system: ANIT-induced model of cholangitis; experiment: Rat ANIT-induced model of cholangitis; type: in vivo, Sprague-Dawley rats; conditions: oral, over a week, 20-30 mg/kg
Method: This rat model of cholangitis was employed to assess the efficacy of lead compounds by monitoring aspartate aminotransferase (AST) serum levels and alanine aminotransferase (ALT) serum levels.
Test compounds were to be assessed for their effect on liver damage using this chronic ANIT-induced model of cholangitis. UDCA was tested orally at high dose of 100 mg/kg in order to ensure an effect in the functional model that mimics its clinical effects in cholestasis patients. […] In this case ANIT was added to the chow at 0.1% inducing cholestasis and the compounds were tested by oral administration over the course of a week. Serum liver enzymes AST and ALT were measured as measures of liver damage and cholestasis. In comparison to the UDCA dose, the sulfonamide and triazole were dosed in the range 20-30 mg/kg.

HUH-7 cells [6] = experiment: Cytoprotection model: DCA-induced cell death in HUH-7 cells
Method: HUH-7 cells were then treated with UDCA and TUDCA in increasing concentration.
HUH-7 cells in culture were then treated with a large library of UDCA 7-analogues to screen for compounds lacking intrinsic toxicity.

[7] = compared to ursodeoxycholic acid; cited from earlier work
HUH-7 liver cancer cells = type: cell-based
Method: A model of bile-acid induced liver injury was developed using HUH-7 liver cancer cells growing in culture. These were treated with increasing concentrations of DCA and GCDCA and the effect monitored using cell count on a high content platform (for example on an IN Cell analyser), MTT as a measure of metabolic activity and propidium iodide (PI). PI is normally cell impermeable so cellular staining is used as a way to detect cells with damaged walls. Appearance of PI positive cells soon after treatment with bile acid and PI indicated necrosis possibly through surfactant damage to the cell wall. A reduction in cell number or metabolic activity occurred without significant PI staining is consistent with an apoptotic form of cell death. DCA caused significant cell death in the range 200-500 μM associated with apoptosis because of the low levels of PI staining. […] (See FIG. 3(a) and FIG. 3(b)).

HUH-7 cells [8] = experiment: Cytoprotection model: GCDCA-induced cell death in HUH-7 cells; type: cell-based; conditions: 24 h pre-treatment, then co-treatment with GCDCA
[9] = test system: hepatocytes in cell culture; conditions: in vitro, cited from earlier work
[10] = hamsters; cited from earlier work
[11] = cited from earlier work
[12] = 24 h before TM 5 μM, then co-treated 24 h (FIG. 15a)

**Q.** With `CC(CCC(=O)O)C1CCC2C3C(O)CC4CC(OS(=O)(=O)O)CCC4(C)C3CCC12C` (stereo not drawn) [C-3 sulfate] as the compound, how does the faecal lithocholic acid [1] read?
**A.** Its faecal lithocholic acid is “increased faecal lithocholic acid significantly”.

**Q.** With `C[C@H](CCC(=O)O)[C@H]1CC[C@H]2[C@@H]3[C@@H](NS(C)(=O)=O)C[C@@H]4C[C@H](O)CC[C@]4(C)[C@H]3CC[C@]12C` [Compound 21, 3α-hydroxy-7β-(methanesulfonamido)-5β-cholanoate] as the compound, how does the “cytoprotective effect (alamarBlue)” value (HUH-7 cells [2]) read?
**A.** Its value is “significant cytoprotective effect at all concentrations measured”.

**Q.** What about the “concentration with almost complete cell viability/cytoprotection” value (HUH-7 cells [2]) of the same compound?
**A.** The value was ≥ 50 µM.

**Q.** And the “cytoprotective effect / increase in cell viability (MTT)” value (HUH-7 cells [3])?
**A.** Its value is “significant cytoprotective effect”.

**Q.** And the “cell viability on pre/co-treatment with tunicamycin” value (HUH-7 cells [4]; [12])?
**A.** Its value is “significant increase in cell viability”.

**Q.** And the “concentration giving complete maintenance of cell viability (or effects of similar size)” value (HUH-7 cells [4]; [12])?
**A.** Its value is 10 µM.

**Q.** What about the “cytoprotective effect against tunicamycin” value (HepG2 cells; 24 h before TM 5 μM, then co-treated 24 h (FIG. 15b)) of the same compound?
**A.** The value was “cytoprotective effect of sulfonamide (21) was also observed”.

**Q.** What about the “comparison with UDCA and TUDCA under the same conditions” value (HepG2 cells; lowest concentration tested of sulfonamide (21)) of the same compound?
**A.** The value was “outperformed all concentrations of UDCA and TUDCA”.

**Q.** And the AST serum levels ([5]; ANIT 0.1% in chow (FIG. 8a))?
**A.** Its AST serum levels is “normalised AST serum levels”.

**Q.** What about the ALT serum levels ([5]; ANIT 0.1% in chow (FIG. 8b)) of the same compound?
**A.** The ALT serum levels was “normalised ALT serum levels”.

**Q.** What about the “concentration range of effective inhibition of DCA-induced cell death” value (HUH-7 cells [6]; FIG. 7) of the same compound?
**A.** The value was 10 to 100 µM.

**Q.** With `C[C@H](CCC(=O)O)[C@H]1CCC2C3C(CC[C@@]21C)[C@@]1(C)CC[C@@H](O)CC1[C@@H](C)[C@@H]3O` (stereo partly drawn) [6-α-methyl ursodeoxycholic acid] as the compound, how does the metabolic stability [7] read?
**A.** The metabolic stability was “increased metabolic stability compared to ursodeoxycholic acid”.

**Q.** Which “effect on cell viability” value (HUH-7 liver cancer cells) does the source give for `CC(CCC(=O)NCC(=O)O)C1CCC2C3C(O)CC4CC(O)CCC4(C)C3CCC12C` (stereo not drawn) [GCDCA, glycochenodeoxycholic acid] here?
**A.** The value was “reduction in cell viability at higher concentration with greater evidence of necrosis”.

**Q.** For `C[C@H](CCC(=O)NCCS(=O)(=O)O)[C@H]1CC[C@H]2[C@@H]3[C@@H](O)C[C@@H]4C[C@H](O)CC[C@]4(C)[C@H]3CC[C@]12C` [TUDCA, tauroursodeoxycholic acid], which “significant cell death on treatment in increasing concentration” value (HUH-7 liver cancer cells) is on record?
**A.** The value was “did not”.

**Q.** And the “cytoprotective effect against GCDCA” value (HUH-7 cells [8])?
**A.** The value was “significant cytoprotective effect”.

**Q.** And the “cytoprotective effect (alamarBlue)” value (HUH-7 cells [2])?
**A.** Its value is “less than with UDCA and the sulphonamide (21)”.

**Q.** What about the “cytoprotective effect / increase in cell viability (MTT)” value (HUH-7 cells [3]) of the same compound?
**A.** Its value is “significantly lesser degree”.

**Q.** What about the “concentration giving complete maintenance of cell viability (or effects of similar size)” value (HUH-7 cells [4]; [12]) of the same compound?
**A.** The value was 100 µM.

**Q.** And the “protective effect in cell-based models” value ([9]; up to the mM concentration range)?
**A.** The value was “weakly but consistently protective”.

**Q.** And the “protective effect when compound withdrawn before DCA” value (HUH-7 cells [6]; 24 h pre-treatment (UDCA 100 μM, TUDCA 1 mM), withdrawn, then DCA (FIG. 4c))?
**A.** The value was “protective effect of TUDCA was not observed”.

**Q.** And the “cell viability 24 h after DCA, compared to DCA alone” value (HUH-7 cells [6]; 24 h pre-treatment, then DCA 200 μM added, TUDCA 1 mM, UDCA 100 μM (FIG. 4b))?
**A.** Its value is “significant increase in cell viability”.

**Q.** What about the “cell viability at 24 h post treatment, combination with DCA” value (HUH-7 cells [6]; combined with DCA without pre-treatment (FIG. 4a)) of the same compound?
**A.** Its value is “did not lead to increased cell viability”.

**Q.** What about the “concentration giving statistically significant increase in cell viability” value (HUH-7 cells [6]; pre-/co-treatment with DCA (FIG. 5a)) of the same compound?
**A.** The value was ≥ 1 mM.

**Q.** For `C[C@H](CCC(=O)O)[C@H]1CC[C@H]2[C@@H]3CC[C@@H]4C[C@H](O)CC[C@]4(C)[C@H]3C[C@H](O)[C@]12C` [DCA, deoxycholic acid], which “concentration range causing significant cell death” value (HUH-7 liver cancer cells; human) is on record?
**A.** The value was 200 to 500 µM.

**Q.** Which “resistance to bacterial modification (metabolism)” value [10] does the source give for `C[C@H](CCC(=O)O)[C@H]1CCC2C3C(CC[C@@]21C)[C@@]1(C)CC[C@@H](O)CC1C[C@]3(C)O` (stereo partly drawn) here?
**A.** The value was “more resistant than the naturally occurring analogues”.

**Q.** With `CC(CCC(=O)O)C1CCC2C3C(OS(=O)(=O)O)CC4CC(O)CCC4(C)C3CCC12C` (stereo not drawn) [C-7 sulfate] as the compound, how does the “faecal lithocholic acid/deoxycholic acid ratio” value [1] read?
**A.** The value was “reduced”.

**Q.** Which results are given for `C[C@H](CCC(=O)O)[C@H]1CC[C@H]2[C@@H]3[C@@H](O)C[C@@H]4C[C@H](O)CC[C@]4(C)[C@H]3CC[C@]12C` [UDCA, ursodeoxycholic acid]?
**A.** significant cell death on treatment in increasing concentration (HUH-7 liver cancer cells; human): 300 μM-1 mM; concentration giving complete maintenance of cell viability (or effects of similar size) (HUH-7 cells [4]; [12]): 100 µM; fraction absorbed ([11]; oral administration): 30-60%; share of absorption occurring in the small intestine ([11]; via passive diffusion): around 80%; concentration at which it can contribute to cell death [9]: > 200 µM; faecal lithocholic acid [1]: increased faecal lithocholic acid significantly

**Q.** Which “decrease in cell viability (alamarBlue)” value (HUH-7 cells [4]; tunicamycin alone, 5 μM, HUH7) does the source give for tunicamycin here?
**A.** The value was “approximately 30%”.
